Laboratory results as given in patent publication US20170087138A1 (priority 2007, published 2017).
Counter-ions that a name gives are not always drawn.

Assays:
[1] = Solubility of salts in water, pH of the saturated solution and identity of the precipitate; type: physicochemical; conditions: for solubility (in words): table 3; for Precipitate: whether precipitate isolated after solubility determination is identical to the compound dissolved; for Resulting pH: pH in the saturated solution of the salt
Experimental: If the acid is a liquid it was added neat otherwise it was dissolved in the given solvent prior to addition. After mixing and precipitation stirring was continued overnight and the precipitate collected by filtration. Before drying in vacuum at 30° C. a small reference sample was withdrawn and dried at room temperature without vacuum. This procedure was included in order to test for solvates.

[2] = system: extracellular levels of acetylcholine in the prefrontal cortex and ventral hippocampus; assay: Microdialysis: extracellular acetylcholine levels in freely-moving rats; type: in vivo; conditions: rat, FIGS. 10A and 10B
Experimental: The experiment was designed to evaluate the effects of compounds of the present invention on extracellular levels of acetylcholine in the prefrontal cortex and ventral hippocampus of freely-moving rats.
Male Sprague-Dawley rats, initially weighing 275-300 g, were used. The animals were housed under a 12-hr light/dark cycle under controlled conditions for regular in-door temperature (21±2° C.) and humidity (55±5%) with food and tap water available ad libitum.
Rats were anaesthetised with hypnorm/dormicum (2 ml/kg) and intracerebral guide cannulas (CMA/12) were stereotaxically implanted into the hippocampus, aiming to position the dialysis probe tip in the ventral hippocampus (co-ordinates: 5.6 mm posterior to bregma, lateral −5.0 mm, 7.0 mm ventral to dura or in the frontal cortex (co-ordinates: 3.2 mm anterior to bregma; lateral, 0.8 mm; 4.0 mm ventral to dura). Anchor screws and acrylic cement were used for fixation of the guide cannulas. The body temperature of the animals was monitored by rectal probe and maintained at 37° C. The rats were allowed to recover from surgery for 2 days, housed singly in cages. On the day of the experiment a microdialysis probe (CMA/12, 0.5 mm diameter, 3 mm length) was inserted through the guide cannula.
The probes were connected via a dual channel swivel to a microinjection pump. […]

[3] = biological target: T1, human-homomeric 5-HT3A receptors (Homo sapiens, UniProt P46098); assay: 5-HT3A receptor antagonism, voltage clamp in Xenopus oocytes; type: cell-based; conditions: higher concentrations (100-100000 nM)
T1 sequence (P46098 24-478): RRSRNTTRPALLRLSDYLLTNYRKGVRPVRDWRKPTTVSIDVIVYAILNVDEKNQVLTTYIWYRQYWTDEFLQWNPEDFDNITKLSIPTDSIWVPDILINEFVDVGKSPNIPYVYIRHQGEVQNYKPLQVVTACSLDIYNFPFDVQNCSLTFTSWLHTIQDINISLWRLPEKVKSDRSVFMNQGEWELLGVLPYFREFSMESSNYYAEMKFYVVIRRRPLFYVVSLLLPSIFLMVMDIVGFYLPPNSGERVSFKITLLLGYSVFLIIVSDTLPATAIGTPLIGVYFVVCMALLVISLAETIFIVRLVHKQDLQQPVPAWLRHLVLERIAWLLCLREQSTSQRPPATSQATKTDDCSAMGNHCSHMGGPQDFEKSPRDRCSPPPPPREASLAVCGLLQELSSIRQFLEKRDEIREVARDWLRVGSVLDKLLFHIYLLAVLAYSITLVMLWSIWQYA
Experimental: The experiments were carried out as follows. […] Oocytes avoid of the follicle layer were selected and incubated for 24 hours in Modified Barth's Saline buffer [88 mM NaCl, 1 mM KCl, 15 mM HEPES, 2.4 mM NaHCO3, 0.41 mM CaCl2, 0.82 mM MgSO4, 0.3 mM Ca(NO3)2] supplemented with 2 mM sodium pyruvate, 0.1 U/l penicillin and 0.1 μg/l streptomycin. Stage IV-IV oocytes were identified and injected with 12-48 nl of nuclease free water containing 14-50 pg of cRNA coding for human 5-HT3A receptors and incubated at 18° C. until they were used for electrophysiological recordings (1-7 days after injection). […] Cells were impaled with agar plugged 0.5-1 MΩ electrodes containing 3 M KCl and voltage clamped at −90 mV by a GeneClamp 500B amplifier. The oocytes were continuously perfused with Ringer buffer and the drugs were applied in the perfusate.

[4] = system: healthy volunteers; assay: Multiple dose clinical trial, vital signs including blood pressure; type: in vivo, human; conditions: up to 30 mg/day
Excerpt: 49 subjects received active compound and 21 subjects received placebo.

[5] = system: C57/B6 mice; assay: Formalin model of neuropathic pain; type: in vivo; conditions: in words
Experimental: The irritation caused by the formalin injection elicits a characteristic biphasic behavioural response, as quantified by the amount of time spent licking the injured paw. The first phase (˜0-10 minutes) represents direct chemical irritation and nociception, whereas the second (˜20-30 minutes) is thought to represent pain of neuropathic origin. The two phases are separated by a quiescent period in which behaviour returns to normal. Measuring the amount of time spent licking the injured paw in the two phases assesses the effectiveness of test compounds to reduce the painful stimuli. Eight C57/B6 mice (ca. 25 g) were tested per group. Table 4 below show the amount of time spent licking the injured paw in the two phases, i.e. 0-5 minutes and 20-30 minutes post formalin injection. The amount of compound administered is calculated as the free base.

Structure (SMILES): Cc1ccc(Sc2ccccc2C2CCNCC2)cc1 (racemic)
- solubility (in words) [1]: exceptionally high solubility
- Precipitate [1]: =start (after

Structure (SMILES): Cc1ccc(Sc2ccccc2C2CCNCC2)cc1 [Adipicacid, 1,6-hexanedioic acid 2:1]
- Precipitate [1]: =start

Structure (SMILES): Cc1ccc(Sc2ccccc2C2CCNCC2)cc1 [Citric acid 2:1]
- Precipitate [1]: =Start

Structure (SMILES): Cc1ccc(Sc2ccccc2C2CCNCC2)cc1 [Compound I, 4-[2-(4-methylphenylsulfanyl)-phenyl]piperidine]
- extra cellular level of acetylcholine in the prefrontal cortex and the hippocampus [2]: increase
- maximal current, of the maximal current elicited by 5-HT itself [3]: 70-80%
- blood pressure [4]: only at the highest dose were there signs of elevated blood pressure
- effect in the first phase (direct chemical irritation and nociception) [5]: little effect
- time spent licking paws in the second phase [5]: clear and dose dependent decrease

Structure (SMILES): Cc1ccc(Sc2ccccc2C2CCNCC2)cc1 [D-tartaric acid, D-2,3-dihydroxy butanedioic acid 1:1]
- Precipitate [1]: Hydrate

Structure (SMILES): Cc1ccc(Sc2ccccc2C2CCNCC2)cc1 [Fumaric acid 1:1]
- Precipitate [1]: =start

Structure (SMILES): Cc1ccc(Sc2ccccc2C2CCNCC2)cc1 [Glutamic acid 1:1]
- solubility (in words) [1]: exceptionally high solubility

Structure (SMILES): Cc1ccc(Sc2ccccc2C2CCNCC2)cc1 [Glutaric acid, 1,5-pentanedioic acid 1:1]
- solubility (in words) [1]: exceptionally high solubility
- Precipitate [1]: =start

Structure (SMILES): Cc1ccc(Sc2ccccc2C2CCNCC2)cc1 [HBr, 4-(2-(4-tolylsulfanyl)phenyl)-piperidin hydrobromide]
- Resulting pH ([1]; hydrobromide): 7.0
- Precipitate ([1]; hydrobromide): =Start

Structure (SMILES): Cc1ccc(Sc2ccccc2C2CCNCC2)cc1 [HCl]
- Precipitate [1]: =Start

Structure (SMILES): Cc1ccc(Sc2ccccc2C2CCNCC2)cc1 [Oxalic acid 1:1]
- Precipitate [1]: =Start

Structure (SMILES): Cc1ccc(Sc2ccccc2C2CCNCC2)cc1 [Phosphoric acid 1:1]
- Resulting pH [1]: 2.0

Structure (SMILES): Cc1ccc(Sc2ccccc2C2CCNCC2)cc1 [Sebacoinic acid, 1,8-octanedioic acid 2:1]
- Precipitate [1]: =Start
